Source: the NIST ThermoML archive (doi:10.1016/j.fluid.2019.06.022)
“And” between values parts separate entries of the source, which are not always exact repeats. Equal entries are not always repeated.

Assay: xn = mol fraction of the nth substance listed
Settings: Liquid; for mass density: Bellows volumetry; for viscosity: Falling or rolling sphere viscometry

C=C [ethene] + Cc1ccccc1
Settings | mass density | viscosity
295.4 K, 2700 kPa, x1 = 0.1131 | 815.8 kg/m3 | 0.474 mPa·s
295.4 K, 2800 kPa, x1 = 0.1131 | 815.8 kg/m3 | 0.474 mPa·s
295.4 K, 11400 kPa, x1 = 0.1131 | 823.1 kg/m3 | 0.508 mPa·s
295.4 K, 11500 kPa, x1 = 0.1131 | 823.1 kg/m3 | 0.509 mPa·s
295.4 K, 20400 kPa, x1 = 0.1131 | 829.9 kg/m3 | 0.551 mPa·s
295.4 K, 20500 kPa, x1 = 0.1131 | 829.9 kg/m3 | 0.548 mPa·s
295.4 K, 36200 kPa, x1 = 0.1131 | 840.8 kg/m3 | 0.614 mPa·s and 0.615 mPa·s
298 K, 3400 kPa, x1 = 0.3241 | 754.7 kg/m3 | 0.309 mPa·s
298 K, 3700 kPa, x1 = 0.3241 | 754.7 kg/m3 | 0.312 mPa·s
298 K, 10000 kPa, x1 = 0.3241 | 767.2 kg/m3 | 0.328 mPa·s and 0.332 mPa·s
298 K, 22000 kPa, x1 = 0.3241 | 778.9 kg/m3 | 0.36 mPa·s and 0.364 mPa·s
298 K, 22300 kPa, x1 = 0.3241 | 778.9 kg/m3 | 0.362 mPa·s
298 K, 22400 kPa, x1 = 0.3241 | 778.9 kg/m3 | 0.366 mPa·s
298 K, 35100 kPa, x1 = 0.3241 | 789.8 kg/m3 | 0.402 mPa·s and 0.398 mPa·s
298 K, 48000 kPa, x1 = 0.3241 | 799.7 kg/m3 | 0.434 mPa·s and 0.439 mPa·s
298 K, 68400 kPa, x1 = 0.3241 | 813.3 kg/m3 | 0.496 mPa·s
298 K, 68500 kPa, x1 = 0.3241 | 813.3 kg/m3 | 0.5 mPa·s
322.1 K, 4200 kPa, x1 = 0.1131 | 792.1 kg/m3 | 0.36 mPa·s and 0.361 mPa·s
322.1 K, 10200 kPa, x1 = 0.1131 | 798.1 kg/m3 | 0.376 mPa·s and 0.377 mPa·s
322.1 K, 21200 kPa, x1 = 0.1131 | 808 kg/m3 | 0.415 mPa·s
322.1 K, 34400 kPa, x1 = 0.1131 | 819.1 kg/m3 | 0.442 mPa·s
322.1 K, 34500 kPa, x1 = 0.1131 | 819.1 kg/m3 | 0.452 mPa·s
322.1 K, 48100 kPa, x1 = 0.1131 | 828.1 kg/m3 | 0.495 mPa·s
322.1 K, 48200 kPa, x1 = 0.1131 | 828.5 kg/m3 | 0.498 mPa·s and 0.497 mPa·s
322.1 K, 65900 kPa, x1 = 0.1131 | 840 kg/m3 | 0.556 mPa·s and 0.55 mPa·s
322.2 K, 7200 kPa, x1 = 0.3241 | 739.3 kg/m3 | 0.25 mPa·s and 0.253 mPa·s
322.2 K, 14700 kPa, x1 = 0.3241 | 748.2 kg/m3 | 0.268 mPa·s and 0.27 mPa·s
322.2 K, 21700 kPa, x1 = 0.3241 | 756.1 kg/m3 | 0.288 mPa·s
322.2 K, 21800 kPa, x1 = 0.3241 | 756.1 kg/m3 | 0.283 mPa·s
322.2 K, 34300 kPa, x1 = 0.3241 | 768.4 kg/m3 | 0.313 mPa·s
322.2 K, 34500 kPa, x1 = 0.3241 | 768.4 kg/m3 | 0.317 mPa·s
322.2 K, 48300 kPa, x1 = 0.3241 | 780.5 kg/m3 | 0.344 mPa·s and 0.348 mPa·s
322.2 K, 68800 kPa, x1 = 0.3241 | 795.9 kg/m3 and 795.8 kg/m3 | 0.391 mPa·s and 0.397 mPa·s
368.1 K, 6800 kPa, x1 = 0.3241 | 692.1 kg/m3 | 0.171 mPa·s and 0.169 mPa·s
368.1 K, 13800 kPa, x1 = 0.3241 | 704 kg/m3 | 0.182 mPa·s
368.1 K, 13900 kPa, x1 = 0.3241 | 704 kg/m3 | 0.185 mPa·s
368.1 K, 26500 kPa, x1 = 0.3241 | 721.7 kg/m3 and 720.9 kg/m3 | 0.205 mPa·s and 0.208 mPa·s
368.1 K, 26600 kPa, x1 = 0.3241 | 720.8 kg/m3 and 721.6 kg/m3 | 0.207 mPa·s and 0.208 mPa·s
368.1 K, 41800 kPa, x1 = 0.3241 | 736.7 kg/m3 | 0.234 mPa·s
368.1 K, 42100 kPa, x1 = 0.3241 | 736.7 kg/m3 | 0.235 mPa·s
368.1 K, 54100 kPa, x1 = 0.3241 | 749.3 kg/m3 | 0.254 mPa·s and 0.255 mPa·s
368.1 K, 54300 kPa, x1 = 0.3241 | 749.3 kg/m3 | 0.253 mPa·s and 0.256 mPa·s
368.1 K, 68200 kPa, x1 = 0.3241 | 761.9 kg/m3 | 0.278 mPa·s and 0.279 mPa·s
369.3 K, 4200 kPa, x1 = 0.1131 | 748.1 kg/m3 | 0.235 mPa·s
369.3 K, 4300 kPa, x1 = 0.1131 | 748.1 kg/m3 | 0.236 mPa·s
369.3 K, 10200 kPa, x1 = 0.1131 | 755.4 kg/m3 | 0.251 mPa·s
369.3 K, 10300 kPa, x1 = 0.1131 | 755.4 kg/m3 | 0.25 mPa·s
369.3 K, 20700 kPa, x1 = 0.1131 | 767.5 kg/m3 | 0.273 mPa·s
369.3 K, 20800 kPa, x1 = 0.1131 | 767.5 kg/m3 | 0.273 mPa·s
369.3 K, 34800 kPa, x1 = 0.1131 | 781.7 kg/m3 | –
